Test results reported in patent US12070471B2, “Remote loading of sparingly water-soluble drugs into lipid vesicles” (CELATOR PHARMACEUTICALS, INC., priority 2014, dated 2024).

How the values were obtained:
[1] = Remote loading of taxane derivative precipitates into liposomes; assay type: physicochemical
Description: Liposomes were prepared using the extrusion and purification method described in Example 1. The lipid composition was POPC/cholesterol (3/0.5, mol/mol). The trapping agent consisted of zinc acetate or magnesium acetate at 120 mM. A solution of either unmodify carbazitaxel or 2′succinylcarbazitaxel in DMSO at 20 mg/mL was added to the liposome solution slowly over 30 seconds while vortexing to produce a drug precipitate in the liposome solution. The target drug to phospholipid ratio was 100 g/mole lipid for unmodified carbazitaxel and 100, 150 or 200 g for succinylcarbazitaxel/mol phospholipid. The solutions are heated for 30 min at 45° C. and then cooled on ice. A sample was removed to determine the input drug to lipid ratio and the remaining solution was spun in a centrifuge at 12,000 RPM for 5 minutes to pellet any unloaded drug. The supernatant was further purified from unloaded drug using a Sephadex G25 size exclusion column eluted with 5 mM HEPES, 145 mM NaCl at pH 6.5. The purified liposomes were analyzed for drug and lipid content by HPLC as described in Example 16.
To encapsulate the 2′ morpholine-4-ylethyl amide of succinylcabazitaxel, liposomes were prepared with a lipid composition of HSPC/DSPG/Chol/PEG-DSPE in the ratio 2/0.6/2/0.3 containing 1.0 M (SO4) TEA dextran sulfate. The liposomes were separated form the non-entrapped TEA dextran sulfate by anion exchange and then by dialysis against 5 mM Hepes buffered 10% (wt/wt) sucrose, pH 6.5. 2′ morpholine-4-ylethyl amide of succinylcabazitaxel was dissolved in DMSO at 10 mg/mL.
In a typical preparation, the DMSO 2′ morpholine-4-ylethyl amide of succinylcabazitaxel solution was added dropwise to the liposomes at room temperature while the liposomes suspension was rapidly mixed on a vortex mixer. […] The purified liposomes were analyzed for drug and lipid content by HPLC as described in Example 16. […]

[2] = Remote loading of amphotericin B precipitate into TEA dextran sulfate liposomes; assay type: physicochemical
Description: Liposomes were prepared with a lipid composition of HSPC/DSPG/Chol/PEG-DSPE in the ratio 2/0.6/2/0.3 containing 1.0 M (SO4) TEA dextran sulfate. The liposomes were separated form the non-entrapped TEA dextran sulfate by anion exchange and then by dialysis against 5 mM Hepes buffered 10% (wt/wt) sucrose pH 6.5. The liposomes were exchanged into 0.01 N HCL, 10% sucrose pH 2.0 before drug loading. Amphotericin B was dissolved in DMSO at 10 mg/ml.
In a typical preparation, the DMSO amphotericin B solution was added dropwise to the liposomes at room temperature while the liposomes suspension was rapidly mixed on a vortex mixer. The concentration of the liposomal lipid was 5 umol (phospholipid)/mL and 0.1 mL of the amphotericin B solution was added per mL of liposomes so that the final amphotericin B concentration was about 1.0 mg/ml AmB and the final DMSO concentration was about 10% (V/V). By adjusting the amount of liposomes in the preparation various AmB/PL ratios were tested, e.g., 200, 400, 800 g/mol.
The samples were heated at 65° C. for 15 min. Then cooled on ice for 30 minutes. The preparation was then passed through a PD10 (Sephadex G25) gel filtration column to remove any precipitated amphotericin B that was not incorporated into the liposome. […] The diameter of the drug loaded liposomes was not changed at the 200 and 400 g drug/mole lipid input ratio and were slighted larger circa 10% in the 800 g drug lipid ratio. The purified liposomes were analyzed for drug and lipid content by the HPLC method as described in Example 1.

[3] = Carfilzomib liposome entrapment by remote loading from precipitate (drug and lipid by HPLC after purification); assay type: physicochemical
Description: Ammonium sulfate solution was prepared by dissolving ammonium sulfate solid to a final concentration of 250 mM (500 mequivilents of anion/L) no pH adjustment was made to yield a final pH of 5.6. Sodium sulfate solution (250 mM) was prepared by adding 0.35 g sodium sulfate to 10 mL deionized water.
The liposomes were formed by extrusion. Lipids were dissolved in ethanol at a concentration of 500 mM HSPC (591 mg/mL total lipid) at 65° C. and the 9 volumes of the trapping agent solution heated to 65° C. was added to the ethanol/lipid solution also at 65° C. The mixture was vortexed and transferred to a 10 mL thermostatically controlled (65° C.) Lipex Extruder. The liposomes were formed by extruding 10 times through polycarbonate membranes having 0.1 um pores. After extrusion the liposomes were cooled on ice. The transmembrane electrochemical gradient was formed by purification of the liposomes by dialysis in dialysis tubing having a molecular weight cut off of 12,000-14,000. […] The conductivity of the liposome solution was measured and was indistinguishable from the dialysis medium ˜40 μS/cm.
The lipid concentration is determined by measuring the cholesterol by HPLC using an Agilent 1100 HPLC with and Agilent Zorbax 5 um, […], Eclipse XDB-C8 column and a mobile phase of A=0.1% TFA, B=0.1% TFA/MeOH with an isocratic elution of 99% B. The flow rate is 1.0 mL/min, column temperature is 50° C., 10 μL injection and detection by absorbance at 205 nm. […] The liposome size is measured by dynamic light scattering.
Carfilzomib (Selleck Chemicals) was dissolved in DMSO at a concentration of 10 mg/mL. […] The supernatants were purified on a Sephadex G25 column collected and analyzed by HPLC. […] The mobile phase consists of A=0.1% TFA, B=0.1% TFA/MeOH with a gradient elution starting at 50% B and increasing to 83% B in 13 min with 7 min equilibration back to 50% B. The flow rate is 1.0 mL/min, column temperature is 30 C, 10 μl injection and detection by absorbance at 205 nm. […] The lipid concentration is determined by analysis of the cholesterol by HPLC. […]

[4] = Drug precipitate loading followed by light scattering at 600 nm; assay type: physicochemical
Description: Liposomes containing 250 mM ammonium sulfate as trapping agent and 250 mM sodium sulfate as control liposomes which would not remote load drug. The liposomes were prepared and loaded using the procedure described in Example 1 except a disposable polystyrene cuvette was used as the reaction vessel. The scattering of light at 600 nm was measured with a UV/vis spectrophotometer during the loading process.

[5] = Reverse gradient-directed drug release from liposomes; assay type: physicochemical
Description: Liposomes were loaded with carfilzomib as described in Example 1 and were purified into deionized water. The sample was divided into two aliquots. To the first aliquot, concentrated Hepes pH 7.4 and NaCl was added so that the final concentration was 5 mM Hepes, 145 mM NaCl (HBS). To the second aliquot, concentrated ammonium sulfate was added so that the final concentration was 250 mM. No obvious physical changes were initially observed. The samples were then heated at 65° C. for 30 min. The samples were transferred to clean eppendorf tubes and centrifuged for 10,000 rpm for 5 min after which the supernatants and precipitates were separated and tested for carfilzomib content by HPLC assay. Released drug precipitated, liposome encapsulated drug remained in the supernatant. The % carfilzomib released was calculated by […]

[6] = Carfilzomib solubility as a function of DMSO content (optical density at 600 nm); assay type: physicochemical; settings: 0.2 mg/mL
Description: Carfilzomib was added from a stock 10 mg/mL solution in DMSO to 1 mL of a citric acid/DMSO mixture so that the composition of DMSO was 2%, 25%, 50%, 75% and 100%. The final drug concentration was 0.2 mg/mL. The solutions were prepared and measured for optical density at 600 nm. The optical density at 600 nm is a good measure of how turbid or how much scattering material (such as drug precipitates) are in a solution, generally, the more precipitates the higher the absorbance. From FIG. 8 is apparent that at DMSO concentrations below 50% vol/vol (25° C.) and 25% vol/vol (65° C.) the drug remains in a precipitated form. Only when the concentration of DMSO is increased does it become effectively solubilized at this concentration of 0.2 mg/mL.

[7] = elimination in the blood stream, unencapsulated drug; cited from earlier work

## CO[C@H]1C(=O)[C@]2(C)[C@@H](OC)C[C@H]3OC[C@@]3(OC(C)=O)[C@H]2[C@H](OC(=O)c2ccccc2)[C@]2(O)C[C@H](OC(=O)[C@H](OC(=O)CCC(=O)O)[C@@H](NC(=O)OC(C)(C)C)c3ccccc3)C(C)=C1C2(C)C [2′ succinylcabazitaxel, 2′-succinylcarbazitaxel]
[1]; POPC/cholesterol liposomes with zinc acetate or magnesium acetate 120 mM, 45 C 30 min
  loading efficacy: greater than 85%

## C[C@@H]1[C@H](O)[C@@H](C)/C=C/C=C/C=C/C=C/C=C/C=C/C=C/[C@H](O[C@@H]2O[C@H](C)[C@@H](O)[C@H](N)[C@@H]2O)C[C@@H]2O[C@](O)(C[C@@H](O)C[C@@H](O)[C@H](O)CC[C@@H](O)C[C@@H](O)CC(=O)O[C@H]1C)C[C@H](O)[C@H]2C(=O)O [Amphotericin B]
[2]; 5 mM Hepes, 144 mM NaCl, pH 7.4 buffer
  amphotericin B concentration to which final liposome preparation was readily concentrated: 10 mg/mL
[2]; 200 and 400 g drug/mole lipid input ratio
  diameter of the drug loaded liposomes: not changed
[2]; 800 g drug lipid ratio
  increase of diameter of the drug loaded liposomes: circa 10%
[2]; input 200 g drug/mole lipid
  remote loading efficiency: 96%
[2]; input 400 g drug/mole of lipid
  drug content of purified preparation: 360 g amphotericin B/mole lipid
  encapsulated: about 90%
[2]; input 800 g drug/mole lipid
  drug content of purified preparation: 560 g amphotericin B/mole lipid
  encapsulated: about 70%

## CO[C@H]1C(=O)[C@]2(C)[C@@H](OC)C[C@H]3OC[C@@]3(OC(C)=O)[C@H]2[C@H](OC(=O)c2ccccc2)[C@]2(O)C[C@H](OC(=O)[C@H](O)[C@@H](NC(=O)OC(C)(C)C)c3ccccc3)C(C)=C1C2(C)C [cabazitaxel]
[1]; 100 g carbazitaxel/mol phospholipid, calcium acetate and magnesium acetate liposomes (so in the source)
  efficiency of loading: very low
[1]; TEA-dextran sulfate liposomes
  encapsulation, % of the added drug: < 5%

## CC(C)C[C@H](NC(=O)[C@H](CCc1ccccc1)NC(=O)CN1CCOCC1)C(=O)N[C@@H](Cc1ccccc1)C(=O)N[C@@H](CC(C)C)C(=O)[C@@]1(C)CO1 [carfilzomib]
[3]; ammonium sulfate vs sodium sulfate liposomes
  loading capacity of remote loaded liposomes relative to sodium sulfate liposomes: > 3 fold
[3]; delay up to 12 h
  impact of delay between precipitate formation and loading on loading efficiency: does not have a significant impact
[3]; triethylammonium sulfate gradient (500 mM), input 650 g drug/mol HSPC, 30 min, 10% DMSO
  greatest payload: 440±12.6 g drug/mol HSPC
[4]; ammonium sulfate liposomes
  time to clarification of the solution during loading: ≤ 15 min
[4]; sodium sulfate liposomes
  clarification of the precipitate during loading: do not show any clarification
[5]
  drug released with reverse gradient relative to control with no reverse gradient: 6.5 fold
[5]; after loading and reverse gradient release
  degradation of released drug (HPLC chromatogram vs starting material): no degradation
[6]; 25 C
  DMSO concentration at which the drug remains in a precipitated form: below 50 % vol/vol
[6]; 65 C
  DMSO concentration at which the drug remains in a precipitated form: < 25 % vol/vol
[7]
  t1/2: < 20 min
